1 compound from BindingDB's records for doi:10.1016/j.ejmech.2013.04.003 (Seoul National University, 2013) can be followed below.

In experiment [1] the target is T1, Transient receptor potential cation channel subfamily V member 1 (Homo sapiens, UniProt Q8NER1). Description: Antagonist activity at human TRPV1 expressed in CHOK1 cells assessed as inhibition of capsaicin-induced activity by FLIPR assay.
The target in experiment [2] is T1, Transient receptor potential cation channel subfamily V member 1. Description: Antagonist activity at human TRPV1 expressed in CHOK1 cells assessed as inhibition of pH 6 to 6.3-induced activity by FLIPR assay.

T1 sequence (Q8NER1 whole entry): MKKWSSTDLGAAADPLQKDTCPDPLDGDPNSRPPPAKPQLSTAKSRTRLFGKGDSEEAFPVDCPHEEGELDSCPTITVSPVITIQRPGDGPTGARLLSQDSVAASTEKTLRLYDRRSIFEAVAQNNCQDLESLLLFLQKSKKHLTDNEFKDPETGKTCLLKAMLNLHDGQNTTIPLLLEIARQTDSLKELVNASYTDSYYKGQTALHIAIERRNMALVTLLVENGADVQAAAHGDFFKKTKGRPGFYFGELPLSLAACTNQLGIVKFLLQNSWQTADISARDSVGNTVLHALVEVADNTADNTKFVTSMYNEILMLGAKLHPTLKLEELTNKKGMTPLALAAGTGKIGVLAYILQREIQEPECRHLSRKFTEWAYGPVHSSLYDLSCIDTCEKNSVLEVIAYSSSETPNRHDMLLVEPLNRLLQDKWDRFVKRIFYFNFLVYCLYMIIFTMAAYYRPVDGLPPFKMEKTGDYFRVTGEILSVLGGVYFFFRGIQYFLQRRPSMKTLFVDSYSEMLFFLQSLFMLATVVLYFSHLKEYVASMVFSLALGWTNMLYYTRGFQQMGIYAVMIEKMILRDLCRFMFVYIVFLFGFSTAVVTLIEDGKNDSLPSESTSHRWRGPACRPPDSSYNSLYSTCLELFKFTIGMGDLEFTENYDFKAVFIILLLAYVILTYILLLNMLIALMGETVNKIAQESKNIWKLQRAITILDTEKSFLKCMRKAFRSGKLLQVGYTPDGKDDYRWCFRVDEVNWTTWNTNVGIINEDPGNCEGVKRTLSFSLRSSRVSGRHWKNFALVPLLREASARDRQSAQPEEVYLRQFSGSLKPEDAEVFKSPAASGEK

As a reminder, the Ki is a measure of affinity in units of concentration, obtained from inhibition or displacement. One may read the IC50 as the point on the concentration scale where inhibition reaches its midpoint. Consider `CC(C(=O)NCc1ccc(C(F)(F)F)nc1OCCCOc1ccccc1)c1ccc(NS(C)(=O)=O)c(F)c1` (configuration not stated), for which the Ki in experiment [1] was found to be 0.0015 µM. In addition, the IC50 in experiment [2] is 0.161 µM.
